Test results: patent publication US10774064B2 (Cadent Therapeutics, Inc., priority 2016, dated 2020)

The molecules below were run against T1, small-conductance Ca2+-activated K+ channels (SK channels, subtype 2) (Homo sapiens, UniProt Q9H2S1) (assay: whole-cell patch-clamp of ionic current through SK2 channels in HEK293 cells (SC100)). Settings: concentration that increases the basal current by 100%; HEK293 cells expressing SK2 channels.
T1 construct: expressed in transfected cells; host or cells: HEK293
Format: cell-based
Method in brief: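 Whole-cell patch-clamp recording of current in HEK293 cells expressing SK2 channels. SC100 is the compound concentration that increases basal current by 100%.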

SC100 | Structure (SMILES)
++ (++ means 200 nM-1000 nM) | Cc1cc(C)n(-c2nc(NCc3cn(C)nn3)cc(NC3CCC(F)(F)CC3)n2)n1 [Compound 233, N4-(4,4-difluorocyclohexyl)-2-(3,5-dimethyl-1H-pyrazol-1-yl)-N6-((1-methyl-1H-1,2,3-triazol-4-yl)methyl)pyrimidine-4,6-diamine]
+ (+ means >1 uM) | Cc1cc(C)n(-c2cc(NCC(C)(C)C)cc(NC3CCC(F)(F)CC3)n2)n1 [Compound 234, N2-(4,4-difluorocyclohexyl)-6-(3,5-dimethyl-1H-pyrazol-1-yl)-N4-neopentylpyridine-2,4-diamine]
++ (++ means 200 nM-1000 nM) | Cc1cc(C)n(-c2nc(NCc3cnn(C)n3)cc(NC3CCC(F)(F)CC3)n2)n1 [Compound 235, N4-(4,4-difluorocyclohexyl)-2-(3,5-dimethyl-1H-pyrazol-1-yl)-N6-((2-methyl-2H-1,2,3-triazol-4-yl)methyl)pyrimidine-4,6-diamine]
+ (+ means >1 uM) | Cc1cc(NC2CCC(F)(F)CC2)nc(-n2cc(C)c(CO)n2)n1 [Compound 236, (1-(4-((4,4-difluorocyclohexyl)amino)-6-methylpyrimidin-2-yl)-4-methyl-1H-pyrazol-3-yl)methanol]
++ (++ means 200 nM-1000 nM) | Cc1cc(NC2CCC(F)(F)CC2)nc(-n2nc(C(F)F)cc2C)n1 [Compound 237, N-(4,4-difluorocyclohexyl)-2-(3-(difluoromethyl)-5-methyl-1H-pyrazol-1-yl)-6-methylpyrimidin-4-amine]
++ (++ means 200 nM-1000 nM) | Cc1cc(C)n(-c2cc(N(C)C3COC3)cc(NC3CCC(F)(F)CC3)n2)n1 [Compound 238, N2-(4,4-difluorocyclohexyl)-6-(3,5-dimethyl-1H-pyrazol-1-yl)-N4-methyl-N4-(oxetan-3-yl)pyridine-2,4-diamine]
++ (++ means 200 nM-1000 nM) | Cc1cc(C)n(-c2cc(NC(C(N)=O)C(C)C)cc(NC3CCC(F)(F)CC3)n2)n1 (stereo not drawn) [Compound 239, 2-((2-((4,4-difluorocyclohexyl)amino)-6-(3,5-dimethyl-1H-pyrazol-1-yl)pyridin-4-yl)amino)-3-methylbutanamide]
+ (+ means >1 uM) | Cc1cc(C)n(-c2cc(N(C)C3COC3)cc(N(C)C3CCC(F)(F)CC3)n2)n1 [Compound 240, N2-(4,4-difluorocyclohexyl)-6-(3,5-dimethyl-1H-pyrazol-1-yl)-N2,N4-dimethyl-N4-(oxetan-3-yl)pyridine-2,4-diamine]
+ (+ means >1 uM) | Cc1cc(NC2CCC(F)(F)CC2)nc(-n2nc(CO)cc2C)n1 [Compound 241, (1-(4-((4,4-difluorocyclohexyl)amino)-6-methylpyrimidin-2-yl)-5-methyl-1H-pyrazol-3-yl)methanol]
+ (+ means >1 uM) | Cc1ccn(-c2nc(NC3CCC(F)(F)CC3)cc(C3COCCC3(F)F)n2)n1 (stereo not drawn) [Compound 242, N-(4,4-difluorocyclohexyl)-6-(4,4-difluorotetrahydro-2H-pyran-3-yl)-2-(3-methyl-1H-pyrazol-1-yl)pyrimidin-4-amine]
+ (+ means >1 uM) | Cc1cc(C)n(-c2nc(NC3CCC(F)(F)CC3)cc(NC3COC3)n2)n1 [Compound 243, N4-(4,4-difluorocyclohexyl)-2-(3,5-dimethyl-1H-pyrazol-1-yl)-N6-(oxetan-3-yl)pyrimidine-4,6-diamine]
++ (++ means 200 nM-1000 nM) | Cc1cc(C)n(-c2cc(OCc3cn(C)nn3)cc(NC3CCC(F)(F)CC3)n2)n1 [Compound 244, N-(4,4-difluorocyclohexyl)-6-(3,5-dimethyl-1H-pyrazol-1-yl)-4-((l-methyl-1H-1,2,3-triazol-4-yl)methoxy)pyridin-2-amine]
+ (+ means >1 uM) | Cc1cc(NC2C[C@@H]3[C@H](C2)C3(F)F)nc(-n2ccc(C)n2)n1 (stereo partly drawn) [Compound 245, N-((1R,5S)-6,6-difluorobicyclo[3.1.0]hexan-3-yl)-6-methyl-2-(3-methyl-1H-pyrazol-1-yl)pyrimidin-4-amine]
+++ (+++ means <200 nM) | Cc1cc(NC2CCC(F)(F)CC2)nc(-n2cc(C)c(C(F)F)n2)n1 [Compound 246, N-(4,4-difluorocyclohexyl)-2-(3-(difluoromethyl)-4-methyl-1H-pyrazol-1-yl)-6-methylpyrimidin-4-amine]
++ (++ means 200 nM-1000 nM) | Cc1cc(NC2CCC(F)(F)CC2)nc(-n2nc(C)cc2C)n1 [Compound 247, N-(4,4-difluorocyclohexyl)-2-(3,5-dimethyl-1H-pyrazol-1-yl)-6-methylpyrimidin-4-amine]
++ (++ means 200 nM-1000 nM) | Cc1cc(C)n(-c2cc(NCc3cnn(C)n3)cc(NC3CCC(F)(F)CC3)n2)n1 [Compound 248, N2-(4,4-difluorocyclohexyl)-6-(3,5-dimethyl-1H-pyrazol-1-yl)-N4-((2-methyl-2H-1,2,3-triazol-4-yl)methyl)pyridine-2,4-diamine]
+ (+ means >1 uM) | CCc1cc(C)n(-c2nc(C)cc(NC3CCC(F)(F)CC3)n2)n1 [Compound 249, N-(4,4-difluorocyclohexyl)-2-(3-ethyl-5-methyl-1H-pyrazol-1-yl)-6-methyl pyrimidin-4-amine]

SC100 | Structure (SMILES)
++ (++ means 200 nM-1000 nM) | Cc1cc(C)n(-c2cc(NCc3cnnn3C)cc(NC3CCC(F)(F)CC3)n2)n1 [Compound 250, N2-(4,4-difluorocyclohexyl)-6-(3,5-dimethyl-1H-pyrazol-1-yl)-N4-((1-methyl-1H-1,2,3-triazol-5-yl)methyl)pyridine-2,4-diamine]
++ (++ means 200 nM-1000 nM) | Cc1cc(C)n(-c2cc(OCc3cnn(C)n3)cc(NC3CCC(F)(F)CC3)n2)n1 [Compound 251, N-(4,4-difluorocyclohexyl)-6-(3,5-dimethyl-1H-pyrazol-1-yl)-4-((2-methyl-2H-1,2,3-triazol-4-yl)methoxy)pyridin-2-amine]
+ (+ means >1 uM) | Cc1cc(C)n(-c2cc(NCc3nnc(C)o3)cc(NC3CCC(F)(F)CC3)n2)n1 [Compound 252, N2-(4,4-difluorocyclohexyl)-6-(3,5-dimethyl-1H-pyrazol-1-yl)-N4-((5-methyl-1,3,4-oxadiazol-2-yl)methyl)pyridine-2,4-diamine]
++ (++ means 200 nM-1000 nM) | Cc1cc(NC2CCC(F)(F)CC2)nc(-n2cc(C)c(C#N)n2)n1 [Compound 253, 1-(4-((4,4-difluorocyclohexyl)amino)-6-methylpyrimidin-2-yl)-4-methyl-1H-pyrazole-3-carbonitrile]
+ (+ means >1 uM) | Cc1cc(C)n(-c2nc(NC3CCC(F)(F)CC3)cc([C@@H]3COCC[C@H]3O)n2)n1 [Compound 254, (+)-3-(6-((4,4-difluorocyclohexyl)amino)-2-(3,5-dimethyl-1H-pyrazol-1-yl)pyrimidin-4-yl)tetrahydro-2H-pyran-4-ol]
+ (+ means >1 uM) | Cc1cc(C)n(-c2cc(NC(C)c3nccs3)cc(NC3CCC(F)(F)CC3)n2)n1 (stereo not drawn) [Compound 255, N2-(4,4-difluorocyclohexyl)-6-(3,5-dimethyl-1H-pyrazol-1-yl)-N4-(1-(thiazol-2-yl)ethyl)pyridine-2,4-diamine]
++ (++ means 200 nM-1000 nM) | Cc1cc(NC2CCC(F)(F)CC2)nc(-n2nc(CF)cc2C)n1 [Compound 256, N-(4,4-difluorocyclohexyl)-2-(3-(fluoromethyl)-5-methyl-1H-pyrazol-1-yl)-6-methylpyrimidin-4-amine]
++ (++ means 200 nM-1000 nM) | Cc1cc(NC2CCC(F)(F)CC2)nc(-n2cc(C)c(CF)n2)n1 [Compound 258, N-(4,4-difluorocyclohexyl)-2-(3-(fluoromethyl)-4-methyl-1H-pyrazol-1-yl)-6-methylpyrimidin-4-amine]
+ (+ means >1 uM) | Cc1cc(C)n(-c2cc(NCc3ncco3)cc(NC3CCC(F)(F)CC3)n2)n1 [Compound 259, N2-(4,4-difluorocyclohexyl)-6-(3,5-dimethyl-1H-pyrazol-1-yl)-N4-(oxazol-2-ylmethyl)pyridine-2,4-diamine]
+ (+ means >1 uM) | CCc1cc(C)nn1-c1nc(C)cc(NC2CCC(F)(F)CC2)n1 [Compound 260, N-(4,4-difluorocyclohexyl)-2-(5-ethyl-3-methyl-1H-pyrazol-1-yl)-6-methylpyrimidin-4-amine]
++ (++ means 200 nM-1000 nM) | Cc1cc(C)n(-c2cc(OCc3nnc(C)o3)cc(NC3CCC(F)(F)CC3)n2)n1 [Compound 261, N-(4,4-difluorocyclohexyl)-6-(3,5-dimethyl-1H-pyrazol-1-yl)-4-((5-methyl-1,3,4-oxadiazol-2-yl)methoxy)pyridin-2-amine]
++ (++ means 200 nM-1000 nM) | Cc1cc(C)n(-c2nc(NC3CCC(F)(F)CC3)cc(C3=CCCOC3)n2)n1 [Compound 262, N-(4,4-difluorocyclohexyl)-6-(5,6-dihydro-2H-pyran-3-yl)-2-(3,5-dimethyl-1H-pyrazol-1-yl)pyrimidin-4-amine]
++ (++ means 200 nM-1000 nM) | Cc1cc(C)n(-c2cc(OCc3ccc(F)cc3)cc(NC3CCC(F)(F)CC3)n2)n1 [Compound 263, N-(4,4-difluorocyclohexyl)-6-(3,5-dimethyl-1H-pyrazol-1-yl)-4-((4-fluorobenzyl)oxy)pyridin-2-amine]
++ (++ means 200 nM-1000 nM) | COc1ccc(CNc2cc(NC3CCC(F)(F)CC3)nc(-n3nc(C)cc3C)c2)cc1 [Compound 264, N2-(4,4-difluorocyclohexyl)-6-(3,5-dimethyl-1H-pyrazol-1-yl)-N4-(4-methoxybenzyl)pyridine-2,4-diamine]
+ (+ means >1 uM) | Cc1cc(NC2CCC(F)(F)CC2)nc(-n2ccc(C(C)(C)O)n2)c1 [Compound 265, 2-(1-(6-((4,4-difluorocyclohexyl)amino)-4-methylpyridin-2-yl)-1H-pyrazol-3-yl)propan-2-ol]
++ (++ means 200 nM-1000 nM) | Cc1cc(C)n(-c2cc3c(ncn3C)c(NC3CCC(F)(F)CC3)n2)n1 [Compound 266, N-(4,4-difluorocyclohexyl)-6-(3,5-dimethyl-1H-pyrazol-1-yl)-1-methyl-1H-imidazo[4,5-c]pyridin-4-amine]
